Test results from patent publication US20140242609A1, “Diagnosis and treatment of kidney stones, methods and compositions therefor” (Washington University, priority 2013, published 2014).
“Also recorded” adds a separate entry of the source.

Legend:
claudin-14 protein = experiment: claudin-14 immunostaining, tight junction localization in mouse kidney sections; format: in vivo; conditions: 30 mg/kg BW−1
Description: For viewing claudin localization in the kidney, fresh cryostat sections (10 μm) were fixed with cold methanol at −20° C., followed by blocking with PBS containing 10% FBS, incubation with primary antibody (1:300) and FITC-labeled secondary antibody (1:200). After washing with PBS, slides were mounted with Mowiol (Calbiochem). Epifluorescence images were taken with a Nikon 80i photomicroscope equipped with a DS-QilMc digital camera. All images were converted to TIFF format and arranged using Photoshop CS4 (Adobe).
For viewing claudin localization in the kidney, fresh cryostat sections (10 μm) were fixed with cold methanol at −20° C., followed by blocking with PBS containing 10% FBS, incubation with primary antibody (1:300) and FITC-labeled secondary antibody (1:200). After washing with PBS, slides were mounted with Mowiol (Calbiochem). Epifluorescence images were taken with a Nikon 80i photomicroscope equipped with a DS-Qi1Mc digital camera. All images were converted to TIFF format and arranged using Photoshop CS4 (Adobe).

[1] = 1 hr renal clearance measurements (FITC-inulin), plasma and urine electrolytes; format: in vivo, mouse
Description: (§1) The method for performing renal clearance measurements in the mouse has been described by Hou et al., (2007; 2009). Mice were anesthetized by i.p. injection of Inactin (Sigma; 100 mg/kg). The jugular vein was catheterized for i.v. infusion of 0.9% saline at 2 μL/min, with 1% FITC-inulin included in the infusate. After an equilibration period of 60 min, renal clearance measurements were carried out for a 60 min period. Urine was collected under mineral oil, and 30 μL blood sample was taken at hourly intervals. Urine and plasma Ca^2+ and Mg^2+ concentrations were measured by atomic flame absorption spectrophotometer (PerkinElmer). Urine and plasma FITC-inulin levels were measured in 100 mM HEPES buffer (pH7.0) with fluorescence spectrophotometer (BioTek). The fractional excretion of electrolytes was calculated using the following equation FEion=V×Uion/(GFR×Pion), where GFR was calculated according to the clearance rate of FITC-inulin (GFR=V×Uinulin/Pinulin).
as §1, with “Hou, J.,” for “Hou”, “2007 and Hou, J., et al., 2009.” for “(2007; 2009).”, “(Sigma:” for “(Sigma;”, “Ca^++” for “Ca^2+”, “Mg^++” for “Mg^2+”, “(PerkinEhner).” for “(PerkinElmer).”

PTH = experiment: plasma PTH levels after NPS2143 or cinacalcet; format: in vivo, mouse; conditions: for Plasma PTH level, course: 8 hrs versus 2 hr; for PTH response: cyclosporine-A pre-treated
pri-miR-9-2 = pri-miR-9-2 transcript levels in TALH of treated mouse kidneys (real-time PCR); format: in vivo; conditions: 30 mg/kg BW−1; 2 hrs or 8 hrs
Source text: Total RNA including microRNA was extracted using Trizol (Invitrogen). Cellular mRNA was reverse transcribed using the Superscript-III kit (Invitrogen), followed by real-time PCR amplification using SYBR Green PCR Master Mix (Bio-Rad) and Eppendorf Realplex2S system. The design of claudin-14 primers was described above. The design of pri-miRNA primers was according to Ma et al., (2010). Results were expressed as 2^−ΔCt values with ΔCT=Ctgene−Ctβ-actin.
To measure the transcriptional level for microRNA gene in vivo in the kidney, the inventors designed primers (see Methods; Table 2) to amplify the pri-miRNA molecule, the original transcript for microRNA gene that had not yet been subjected to any nuclear or cellular processing. Because both miR-9 and miR-374 had broader localization profiles along the nephron, the inventors isolated the TALH tubular cells for pri-miRNA analyses from the mouse kidney described elsewhere in this study. WT mice (strain: C57BL/6) were treated with NPS2143 or cinacalcet as described for claudin-14 analyses and assayed for pri-miRNA levels in isolated TALH cells at 2 hrs and 8 hrs respectively. […] NPS2143 and cinacalcet also profoundly regulated pri-miR-374. […]
Total RNA including microRNA was extracted using Trizol (Invitrogen). […] Results were expressed as 2^−ΔCt values with ΔCT=Ctgene−Ctβ-actin.

[2] = WT + CsA (25 mg/kg BW−1 per day, 6 days), 2 hr, Veh = CsA alone
[3] = WT, 2 hr, single dose 30 mg/kg BW−1
[4] = WT, 2 hr, single dose 30 mg/kg BW−1, 30 mg/kg
[5] = WT, 2 hr, single dose 30 mg/kg BW−1, listed as Cina, 30 mg/kg
[6] = WT, 8 hr, single dose 30 mg/kg BW−1
[7] = claudin-14 KO, 2 hr, single dose 30 mg/kg BW−1
[8] = WT, at both 2 hrs and 8 hrs, 30 mg/kg BW−1, versus vehicle
[9] = WT, 2 hr, single dose 30 mg/kg BW−1, listed as NPS, 30 mg/kg

| Structure (SMILES) | claudin-14 staining in tight junctions of TALH tubules (claudin-14 protein) | ECa [1, 2] | FECa (fractional excretion of Ca++) [1, 2] | FEMg (fractional excretion of Mg++) [1, 2] | PCa (plasma Ca++ concentration) [1, 2] | PMg (plasma Mg++ concentration) [1, 2] | ECa [1, 3] | EMg [1, 3] | FEMg (fractional excretion of Mg++) [1, 3] | PMg (plasma Mg++ concentration) [1, 3] | FECa (fractional excretion of Ca++) [1, 4] | PCa (plasma Ca++ concentration) [1, 4] | ECa [1, 6] | EMg [1, 6] | FECa (fractional excretion of Ca++) [1, 6] | FEMg (fractional excretion of Mg++) [1, 6] | PCa (plasma Ca++ concentration) [1, 6] | PMg (plasma Mg++ concentration) [1, 6] | ECa [1, 7] | EMg [1, 7] | also measured |
| --- | --- | --- | --- | --- | --- | --- | --- | --- | --- | --- | --- | --- | --- | --- | --- | --- | --- | --- | --- | --- | --- |
| C[C@@H](NCCCc1cccc(C(F)(F)F)c1)c1cccc2ccccc12 [cinacalcet] | profoundly upregulated claudin-14 protein levels in the tight junction | 0.79 ± 0.07 ug/hr · g | 1.93 ± 0.20 % | 14.47 ± 1.13% | 8.09 ± 0.32 mg/dL | 1.58 ± 0.04 mg/dL | 1.33 ± 0.13 ug/hr · g | 2.32 ± 0.26 ug/hr · g | 28.14 ± 2.93 % | 1.96 ± 0.04 mg/dL | 3.82±0.52% | 8.44 ± 0.27 mg/dL | 0.22 ± 0.02 ug/hr · g | 1.25 ± 0.09 ug/hr · g | 0.88 ± 0.14% | 18.80 ± 1.48% | 9.58 ± 0.21 mg/dL | 2.44 ± 0.16 mg/dL | 0.31 ± 0.03 ug/hr · g | 1.12 ± 0.03 ug/hr · g | FECa (fractional excretion of Ca++) [1, 5]: 3.82 ± 0.52 %; PCa (plasma Ca++ concentration) [1, 5]: 8.44 ± 0.27 mg/dL; FECa (fractional excretion of Ca++) [1, 7]: 1.08 ± 0.26%; FEMg (fractional excretion of Mg++) [1, 7]: 12.35 ± 2.21%; PCa (plasma Ca++ concentration) [1, 7]: 8.47 ± 0.09 mg/dL; PMg (plasma Mg++ concentration) [1, 7]: 2.64 ± 0.10 mg/dL; cinacalcet induced hypercalciuria, level higher than vehicle ([1]; cyclosporine-A pre-treated animals, 2 hrs): 1.93 fold; Plasma PTH level, course (PTH; WT): continued to suppress plasma PTH levels; plasma PTH levels (PTH; [8]): significantly affected; plasma PTH levels (PTH; claudin-14 KO animals, 2 hrs): suppressed PTH levels; PTH response (PTH; 2 hrs): intact PTH response; pri-miR-9-2 level, change (pri-miR-9-2): Neither pri-miR-9-2 (FIG. 12B) nor pri-miR-9-3 level (FIG. 12C) was significantly altered; also recorded: Neither pri-miR-9-2 (FIG. 29B) nor pri-miR-9-3 level (FIG. 29C) was significantly altered |
| CC(C)(Cc1ccc2ccccc2c1)NC[C@@H](O)COc1cccc(Cl)c1C#N [NPS2143] | reduced the staining signal for claudin-14 to punctate foci; also recorded: reduced the staining signal for claudin-14 to punctuate foci | 0.38 ± 0.02 ug/hr · g | 0.95 ± 0.14% | 11.96 ± 2.27% | 10.50 ± 0.18 mg/dL | 1.67 ± 0.02 mg/dL | 0.06 ± 0.01 ug/hr · g | 1.04 ± 0.06 ug/hr · g | 7.59 ± 0.32 % | 2.74 ± 0.15 mg/dL | 0.09±0.01% | 11.15 ± 0.21 mg/dL | 0.25 ± 0.04 ug/hr · g | 1.41 ± 0.18 ug/hr · g | 0.58 ± 0.11% | 14.88 ± 2.63% | 10.63 ± 0.43 mg/dL | 2.37 ± 0.09 mg/dL | 0.25 ± 0.09 ug/hr · g | 1.02 ± 0.12 ug/hr · g | EMg [1, 2]: 0.80 ± 0.19 ug/hr · g; FECa (fractional excretion of Ca++) [1, 9]: 0.09 ± 0.01 %; PCa (plasma Ca++ concentration) [1, 9]: 11.15 ± 0.21 mg/dL; FECa (fractional excretion of Ca++) [1, 7]: 0.74 ± 0.26%; FEMg (fractional excretion of Mg++) [1, 7]: 10.71 ± 2.16%; PCa (plasma Ca++ concentration) [1, 7]: 10.22 ± 0.30 mg/dL; PMg (plasma Mg++ concentration) [1, 7]: 2.88 ± 0.12 mg/dL; Plasma PTH level, course (PTH; WT): started to return towards baseline; plasma PTH levels (PTH; [8]): significantly affected; plasma PTH levels (PTH; claudin-14 KO animals, 2 hrs): significant increases in plasma PTH levels; PTH response (PTH; 2 hrs): intact PTH response; pri-miR-9-2 level, change (pri-miR-9-2): Neither pri-miR-9-2 (FIG. 12B) nor pri-miR-9-3 level (FIG. 12C) was significantly altered; also recorded: Neither pri-miR-9-2 (FIG. 29B) nor pri-miR-9-3 level (FIG. 29C) was significantly altered |
